Data from the supplement of paper PMC10307832.

Legend:
Experiment in all cases: relative viability (nuclei count vs DMSO), 5 days (fraction); higher = more cells survive
[1] = compound: C[C@@]1(C(=O)Nc2ccc(F)nc2)CCCN1c1nc(Nc2cc(C3CC3)n[nH]2)c2cccn2n1 + CC(=O)c1c(C)c2cnc(Nc3ccc(N4CCNCC4)cn3)nc2n(C2CCCC2)c1=O [Palbociclib] (partner 0.5 µM)
Method in brief: (§1)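 Cells from lung cancer lines were seeded into 1536-well plates and, one day later, dosed by pin tool. Treatments were either a single drug or a fixed dose of an anchor drug with five library-drug doses (not always all listed) in √10 steps. After 5 days, nuclei were stained in a one-step fixation (final 0.05% Triton X-100, 1% formaldehyde, 1 ug/ml Hoechst) and counted on 4× images, and relative viability is the treated-to-vehicle nuclei ratio, as the median of duplicate plates.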

[2] = compound: C[C@@]1(C(=O)Nc2ccc(F)nc2)CCCN1c1nc(Nc2cc(C3CC3)n[nH]2)c2cccn2n1 + Cc1cc(Nc2cc(N3CCN(C)CC3)nc(Sc3ccc(NC(=O)C4CC4)cc3)n2)n[nH]1 [Tozasertib] (partner 0.1 µM)
Method in brief: as §1

[3] = compound: C[C@@]1(C(=O)Nc2ccc(F)nc2)CCCN1c1nc(Nc2cc(C3CC3)n[nH]2)c2cccn2n1 + Cc1nc(NC(=O)N2CCC[C@H]2C(N)=O)sc1-c1ccnc(C(C)(C)C(F)(F)F)c1 [Alpelisib] (partner 2 µM)
Method in brief: as §1

[4] = compound: C[C@@]1(C(=O)Nc2ccc(F)nc2)CCCN1c1nc(Nc2cc(C3CC3)n[nH]2)c2cccn2n1 + N=C(N)NC(=N)NCCc1ccccc1 [Phenformin] (partner 250 µM)
Method in brief: as §1

Row | Cell Line | relative viability ([1]; first compound 0.04 µM) | relative viability ([1]; first compound 0.1265 µM) | relative viability ([1]; first compound 0.4 µM) | relative viability ([1]; first compound 1.265 µM) | relative viability ([2]; first compound 0.04 µM) | relative viability ([2]; first compound 0.1265 µM) | relative viability ([2]; first compound 0.4 µM) | relative viability ([2]; first compound 1.265 µM) | relative viability ([3]; first compound 0.04 µM) | relative viability ([3]; first compound 0.1265 µM) | relative viability ([3]; first compound 0.4 µM) | relative viability ([3]; first compound 1.265 µM) | relative viability ([4]; first compound 0.04 µM) | relative viability ([4]; first compound 0.1265 µM) | relative viability ([4]; first compound 0.4 µM) | relative viability ([4]; first compound 1.265 µM)
1 | NCI-H650 | 0.305 | 0.211 | 0.263 | 0.256 | 0.714 | 0.479 | 0.523 | 0.398 | 1.04 | 0.731 | 0.891 | 0.811 | 0.452 | 0.405 | 0.406 | 0.316
2 | NCI-H661 | 0.388 | 0.427 | 0.412 | 0.386 | 0.37 | 0.345 | 0.369 | 0.338 | 0.592 | 0.665 | 0.793 | 0.566 | 0.245 | 0.235 | 0.233 | 0.229
3 | NCI-H727 | 0.575 | 0.528 | 0.404 | 0.38 | 0.525 | 0.355 | 0.352 | 0.379 | 0.33 | 0.24 | 0.221 | 0.303 | 0.402 | 0.247 | 0.266 | 0.322
4 | NCI-H838 | 0.241 | 0.191 | 0.185 | 0.17 | 0.249 | 0.221 | 0.166 | 0.259 | 1.05 | 0.819 | 0.815 | 0.982 | 0.563 | 0.449 | 0.308 | 0.37
5 | NCI-H1355 | 0.312 | 0.269 | 0.242 | 0.321 | 0.551 | 0.438 | 0.323 | 0.526 | 0.816 | 0.758 | 0.613 | 0.868 | 0.418 | 0.415 | 0.347 | 0.39
6 | NCI-H1395 | 0.658 | 0.603 | 0.609 | 0.625 | 0.783 | 0.741 | 0.74 | 0.61 | 0.988 | 0.719 | 1.15 | 1.1 | 0.428 | 0.42 | 0.5 | 0.481
7 | NCI-H1437 | 0.302 | 0.278 | 0.252 | 0.234 | 0.382 | 0.309 | 0.221 | 0.238 | 0.722 | 0.561 | 0.581 | 0.717 | 0.257 | 0.253 | 0.214 | 0.171
8 | NCI-H1651 | 0.494 | 0.442 | 0.439 | 0.491 | 0.639 | 0.633 | 0.449 | 0.537 | 0.86 | 0.785 | 0.779 | 0.904 | 0.283 | 0.287 | 0.269 | 0.283
9 | NCI-H1666 | 0.647 | 0.627 | 0.599 | 0.603 | 0.623 | 0.558 | 0.465 | 0.415 | 0.825 | 0.798 | 0.742 | 0.585 | 0.554 | 0.529 | 0.635 | 0.487
10 | NCI-H1734 | 0.275 | 0.236 | 0.226 | 0.282 | 0.234 | 0.246 | 0.26 | 0.242 | 0.571 | 0.509 | 0.476 | 0.605 | 0.323 | 0.272 | 0.278 | 0.281
11 | NCI-H1755 | 0.403 | 0.433 | 0.469 | 0.494 | 0.558 | 0.528 | 0.472 | 0.545 | 0.91 | 0.746 | 0.806 | 0.999 | 0.638 | 0.55 | 0.53 | 0.547
12 | NCI-H1793 | 0.367 | 0.294 | 0.225 | 0.289 | 0.631 | 0.283 | – | 0.789 | 0.731 | 0.625 | 0.553 | 0.731 | 0.322 | 0.286 | – | 0.306
13 | NCI-H1915 | 0.534 | 0.507 | 0.52 | 0.551 | 0.473 | 0.418 | 0.407 | 0.415 | 1.09 | 1.08 | 1.04 | 1.06 | 0.372 | 0.381 | 0.378 | 0.347
14 | NCI-H1944 | 0.272 | 0.237 | 0.251 | 0.294 | 0.251 | 0.239 | 0.203 | 0.245 | 0.72 | 0.657 | 0.669 | 0.834 | 0.169 | 0.153 | 0.136 | 0.133
15 | NCI-H1975 | 0.564 | 0.521 | 0.374 | 0.452 | 0.682 | 0.646 | 0.513 | 0.316 | 0.638 | 0.553 | 0.472 | 0.482 | 0.407 | 0.36 | 0.326 | 0.314
16 | NCI-H1993 | 0.461 | 0.465 | 0.27 | 0.49 | 0.556 | 0.502 | 0.55 | 0.549 | 0.678 | – | 0.649 | 0.745 | 0.495 | 0.657 | 0.541 | 0.55
17 | NCI-H2009 | 0.221 | 0.258 | 0.162 | 0.212 | 0.779 | 0.693 | 0.598 | 0.519 | 1.17 | 1.24 | 1.12 | 1.22 | 0.539 | 0.493 | 0.479 | 0.481
